Data taken from PubChem BioAssay (NCI).
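Assay format: 96-well plates, 48-hour exposure. At the TGI there is no net growth.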

Columns and labels:
Experiment in all cases: NCI-60 cell line screen, 48 h
[1] = system: M14 melanoma
[2] = system: MALME-3M melanoma
[3] = system: NCI-H23 lung
[4] = system: LOX IMVI melanoma
[5] = system: T-47D breast
[6] = system: U251 CNS
[7] = system: RXF 393 renal
[8] = system: HCC-2998 colon
[9] = system: MOLT-4 leukemia
[10] = system: CAKI-1 renal
[11] = system: OVCAR-4 ovarian
[12] = system: IGROV1 ovarian
[13] = system: HOP-92 NSCLC
[14] = system: SF-268 CNS
[15] = system: NCI/ADR-RES ovarian
[16] = system: PC-3 prostate
[17] = system: SK-OV-3 ovarian
[18] = system: HCT-116 colon
[19] = system: SNB-19 CNS
[20] = system: COLO 205 colon
[21] = system: BT-549 breast
[22] = system: HOP-62 NSCLC
[23] = system: OVCAR-3 ovarian
[24] = system: SK-MEL-2 melanoma
[25] = system: MDA-MB-435
[26] = system: EKVX NSCLC
[27] = system: HCT-15 colon
[28] = system: MDA-MB-231 breast
[29] = system: SNB-75 CNS
[30] = system: HS 578T breast
[31] = system: TK-10 renal
[32] = system: KM12 colon
[33] = system: ACHN renal
[34] = system: SK-MEL-5 melanoma
[35] = system: A549 NSCLC
[36] = system: DU-145 prostate
[37] = system: K-562 leukemia
[38] = system: RPMI-8226 leukemia
[39] = system: SW-620 colon
[40] = system: CCRF-CEM leukemia
[41] = system: UACC-257 melanoma
[42] = system: SF-539 CNS
[43] = system: NCI-H460 lung
[44] = system: NCI-H226 lung
[45] = system: MCF7 breast
[46] = system: SR leukemia
[47] = system: HL-60(TB) leukemia
[48] = system: SN12C renal
[49] = system: SK-MEL-28 melanoma
[50] = system: UO-31 renal
[51] = system: SF-295 CNS
[52] = system: NCI-H522 lung
[53] = system: 786-0 renal
[54] = system: UACC-62 melanoma
[55] = system: MDA-N
[56] = system: OVCAR-8 ovarian
[57] = system: OVCAR-5 ovarian
[58] = system: HT29 colon
[59] = system: A498 renal

For `Nc1c2ccccc2nc2ccc(C(=O)Nc3ccc(S(N)(=O)=O)cc3)cc12`, the TGI [1] was > 100 µM, the TGI [2] was > 100 µM and the TGI [3] was > 100 µM. For the same compound, the TGI [4] was > 100 µM, the TGI [5] was > 100 µM and the TGI [6] was > 100 µM. For the same compound, the TGI [7] was > 100 µM, the TGI [8] was > 100 µM and the TGI [9] was > 100 µM. For the same compound, the TGI [10] was > 100 µM, the TGI [11] was > 100 µM and the TGI [12] was > 100 µM. For the same compound, the TGI [13] was > 100 µM, the TGI [14] was > 100 µM and the TGI [15] was > 100 µM. For the same compound, the TGI [16] was > 100 µM, the TGI [17] was > 100 µM and the TGI [18] was > 100 µM. The TGI [19] was > 100 µM, the TGI [20] was > 100 µM and the TGI [21] was > 100 µM. For the same compound, the TGI [22] was > 100 µM, the TGI [23] was > 100 µM and the TGI [24] was > 100 µM. The TGI [25] was > 100 µM, the TGI [26] was > 100 µM and the TGI [27] was > 100 µM. The TGI [28] was > 100 µM, the TGI [29] was > 100 µM and the TGI [30] was > 100 µM. For the same compound, the TGI [31] was > 100 µM, the TGI [32] was > 100 µM and the TGI [33] was > 100 µM. For the same compound, the TGI [34] was > 100 µM, the TGI [35] was > 100 µM and the TGI [36] was > 100 µM. For the same compound, the TGI [37] was > 100 µM, the TGI [38] was > 100 µM and the TGI [39] was > 100 µM. The TGI [40] was > 100 µM, the TGI [41] was > 100 µM and the TGI [42] was > 100 µM. For the same compound, the TGI [43] was > 100 µM, the TGI [44] was > 100 µM and the TGI [45] was > 100 µM. For the same compound, the TGI [46] was > 100 µM, the TGI [47] was > 100 µM and the TGI [48] was > 100 µM. The TGI [49] was > 100 µM, the TGI [50] was > 100 µM and the TGI [51] was > 100 µM. The TGI [52] was > 100 µM, the TGI [53] was > 100 µM and the TGI [54] was > 100 µM. The TGI [55] was > 100 µM, the TGI [56] was > 100 µM and the TGI [57] was > 100 µM. For the same compound, the TGI [58] was > 100 µM.
Work on `C=CC(C)(C)c1cc([C@@H]2COc3cc(O)ccc3C2=O)c(O)c(OC)c1OC` yielded a TGI [1] of 31.2 µM, a TGI [2] of 43.2 µM and a TGI [3] of 27.2 µM. For the same compound, the TGI [4] was 37.9 µM, the TGI [5] was 35.2 µM and the TGI [6] was 26.8 µM. For the same compound, the TGI [7] was 3.58 µM, the TGI [8] was 34.3 µM and the TGI [9] was > 100 µM. It also gave a TGI [11] of 19.7 µM, a TGI [13] of 21.6 µM and a TGI [14] of 51 µM. It also gave a TGI [15] of 43 µM, a TGI [16] of 34.8 µM and a TGI [17] of 36.7 µM. It also gave a TGI [18] of 24.5 µM, a TGI [19] of 30.6 µM and a TGI [20] of 45 µM. It also gave a TGI [21] of 25.1 µM, a TGI [23] of 23.3 µM and a TGI [24] of 33.3 µM. The TGI [25] was 21.5 µM, the TGI [26] was 58.3 µM and the TGI [27] was 32.8 µM. For the same compound, the TGI [28] was 37.9 µM, the TGI [29] was 25.6 µM and the TGI [30] was 72.2 µM. The TGI [31] was > 100 µM, the TGI [32] was 27.8 µM and the TGI [33] was 33.7 µM. The TGI [34] was 22.7 µM, the TGI [35] was 52 µM and the TGI [36] was 30.3 µM. For the same compound, the TGI [37] was > 100 µM, the TGI [39] was > 100 µM and the TGI [40] was > 100 µM. The TGI [41] was 44.9 µM, the TGI [42] was 44 µM and the TGI [43] was 41.7 µM. The TGI [44] was 38.9 µM, the TGI [45] was 31.8 µM and the TGI [46] was > 100 µM. It also gave a TGI [47] of 44.2 µM, a TGI [48] of 31.3 µM and a TGI [49] of 52.6 µM. It also gave a TGI [50] of 28.3 µM, a TGI [51] of 27.5 µM and a TGI [52] of 20.9 µM. For the same compound, the TGI [59] was 35.4 µM, the TGI [53] was 31.9 µM and the TGI [54] was 27.5 µM. The TGI [55] was 26 µM, the TGI [56] was 54.3 µM and the TGI [57] was 50.4 µM. The TGI [58] was 47.3 µM.
